Data reported in EP4700040A1, “PEPTIDE AND LUMINESCENT COMPLEX CONTAINING SAME” (Shenzhen Loggene Life Science & Technology Co., Ltd., priority 2023, dated 2024).

How the values were obtained:
[1] = test system: human interleukin 6 (human IL6); test: Luciferase dual-antibody complementary activation assay for human IL6 (Example 7); format: biochemical; settings: estimated by ((mean+3SD)-RLU0.5)/(RLU5-RLU0.5)*4.5+0.5
From the text: Expression and purification of human IL6 recombinant protein: An expression vector of human IL6 (UniProtKB ID: P05231, AA29~212) with six histidine-tagged (C-terminal) fusion proteins (SEQ ID NO: 90) was constructed. The fusion protein was recombinantly expressed in E. coli, and purified with nickel column. The protein purity was detected by denaturing SDS-polyacrylamide gel electrophoresis, and the protein concentration was detected by nucleic acid-protein quantification instrument.
Expression and purification of a fusion protein of the small and large subunits with IL6 antibody: prokaryotic expression plasmids of the fusion protein RB073-449-1 (SEQ ID NO: 91) of the small subunit peptide RB073 with human IL6 SCFV antibody 449-1, and the fusion protein OL-453 (SEQ ID NO: 92) of the large subunit with human IL6 SCFV antibody 453 were constructed. The fusion proteins were recombinantly expressed in E. coli, and purified with nickel column. The protein purity was detected by denaturing SDS-polyacrylamide gel electrophoresis, and the protein concentration was detected by nucleic acid-protein quantification instrument.
Test Methods • (1) Recombinant human IL6 protein was diluted with PBSA in 10-fold gradient starting from 5000 pg/ml, with 5 gradients in total. […]

[2] = test system: PCT; test: Complementary activity of small subunits mutated at conserved positions, Furimazine substrate (Example 6); format: biochemical, human; settings: MBP-PCT 3.3 ng/ml, supernatant
Protocol: Detection Methods: • (1) The concentration of large subunit-rSCFV5 fusion protein was diluted to 12.5 nM, and 15 µl was added per well; • (2) MBP-PCT fusion protein was diluted to 3.3 ng/ml with PBSAD, and 10 µl was added per well; • (3) HB2151 strain containing plasmids with different small subunit sequences were induced by IPTG at 30°C overnight, then treated with polymyxin B for 1.5h, and centrifuged to collect the supernatant, and 2.5µl supernatant was added per well; • (4) The above three components were slightly mixed, incubated at 37°C for 7 min, and Obuffer 6.37-3 containing Furimazine at a concentration of 25 µM was added, […], the luminescence signal value was detected using a bioluminescence detector; and • (5) Clones with RLU higher than 10,000 were picked. The substrate was replaced with CTZ-h substrate for retesting (Obuffer 6.37-3 containing CTZ-h at a concentration of 25 µM was added, and after 60 s, the luminescence signal value was detected using a bioluminescence detector), and a PBSAD control was added to test the signal-to-noise ratio.
In order to further determine whether these three conserved amino acid sequences were changed, this example constructed a random mutation library of these three positions, with a theoretical diversity of 8,000 and a library capacity of 10^6, and 2,000 single clones were picked. The method of protein induction and expression was the same as that in Example 1. The complementary activity was tested in the same manner as that in Example 4, but the signal-to-noise ratio was not retested with CTZ-h. Clones with different activity were randomly picked for sequencing.

[3] = test system: PCT; test: Second library screening for PCT detection, clone supernatants, retest with CTZ-h (Example 4); format: biochemical, human
Protocol: In order to further improve the signal-to-noise ratio and complementary activity of the luciferase dual-antibody complementary activation assay, novel complementary luciferase small subunits were prepared in this example. Large subunit-rSCFV5 fusion protein (SEQ ID NO: 87) was kept unchanged, and the small subunit sequence of the rSCFV18-RB073 fusion protein (SEQ ID NO: 89) were modified by semi-randomization. The theoretical diversity was 6912, the library capacity was 10^6, and 3,000 single clones were picked. The method of protein induction and expression was the same as that in Example 2.
Detection Methods: • (1) The concentration of large subunit-rSCFV5 fusion protein was diluted to 12.5 nM, and 15 µl was added per well; • (2) MBP-PCT fusion protein was diluted to 3.3 ng/ml with PBSAD, and 10 µl was added per well; • (3) HB2151 strain containing plasmids with different small subunit sequences were induced by IPTG at 30°C overnight, then treated with polymyxin B for 1.5h, and centrifuged to collect the supernatant, and 2.5µl supernatant was added per well; • (4) The above three components were slightly mixed, incubated at 37°C for 7 min, and Obuffer 6.37-3 containing Furimazine at a concentration of 25 µM was added, and after 3 min, the luminescence signal value was detected using a bioluminescence detector; and • (5) Clones with RLU higher than 10,000 were picked. The substrate was replaced with CTZ-h substrate for retesting (Obuffer 6.37-3 containing CTZ-h at a concentration of 25 µM was added, and after 60 s, the luminescence signal value was detected using a bioluminescence detector), and a PBSAD control was added to test the signal-to-noise ratio.

[4] = test system: PCT; test: Sensitivity and linear range for PCT detection of preferred small subunits (Example 5); format: biochemical, human; settings: for luminescence value: normalized
Protocol: Detection Methods: • (1) The concentration of large subunit-rSCFV5 fusion protein was diluted with PBSA to 8.3~25nM, and 15µl was added per well; • (2) MBP-PCT fusion proteins were diluted with PBSAD in a downward gradient starting from 2.5 µg/ml, and 10 µl was added per well; • (3) The rSCFV18-small subunit mutant-containing fusion protein was diluted with PBSA to 30~180 nM, and 15 µl was added per well; • (4) The above three components were slightly mixed, incubated at 37°C for 15 min, and Obuffer 6.37-3 containing CTZ-h at a concentration of 15 µM was added, and the luminescence signal value was immediately detected using a bioluminescence detector (the luminescence value was normalized);

LLD (low limit of detection) [1]	Sequence	activity (luminescence signal value), 3 min ([2]; 3 min after Furimazine 25 µM)	activity (luminescence signal value), 6 min ([2]; 6 min after Furimazine 25 µM)	Signal-to-noise ratio ([3]; PCT+/PCT-, MBP-PCT 3.3 ng/ml, CTZ-h)	PCT+ ([3]; luminescence signal value with MBP-PCT 3.3 ng/ml, large subunit-rSCFV5 12.5 nM, CTZ-h 25 µM, 60 s)	PCT- ([3]; luminescence signal value, PBSAD control without PCT, large subunit-rSCFV5 12.5 nM, CTZ-h 25 µM, 60 s)	luminescence value ([4]; PCT 0.0, background)	luminescence value ([4]; PCT 1 (pg/ml))	luminescence value ([4]; PCT 3 (pg/ml))	luminescence value ([4]; PCT 10 (pg/ml))	luminescence value ([4]; PCT 30 (pg/ml))	luminescence value ([4]; PCT 100 (pg/ml))	luminescence value ([4]; PCT 1000 (pg/ml))	luminescence value ([4]; PCT 10000 (pg/ml))	luminescence value ([4]; PCT 100000 (pg/ml))	luminescence value ([4]; PCT 250000 (pg/ml))	Signal-to-noise ratio at 1000 pg/ml ([4]; large subunit 8.3~25 nM, small subunit fusion 30~180 nM, CTZ-h 15 µM)
0.79 pg/mL	VEGYRLFDRKS [RB073]	46672	32973														
	VTGYRLFEEIL [P114, reference compound]			1.9	1493	786	5000	5324	5403	5314	5724	5429	18939	99257	804042	1431884	3.8
